# Test results reported in patent publication US20230096028A1, “BICYCLIC HETEROCYCLYL COMPOUNDS AND USES THEREOF” (Revolution Medicines, Inc., priority 2019, published 2023).
# Counter-ions that a name gives are not always drawn. Like-named read-outs stand apart in the source and are kept apart here.
# What was measured:
# [1] = molecular target: T1, SOS1 catalytic domain (residues 564-1049) (Homo sapiens, UniProt Q07889); assay: Potency Assay: binding affinity to SOS1 using Surface Plasmon Resonance (SPR); design: SOS1 catalytic domain (residues 564-1049) immobilized on a sensor chip; conditions: immobilized SOS1 catalytic domain (residues 564-1049), read-out: SOS1 SPR Equilibrium Kd
# T1 sequence (Q07889 564-1049): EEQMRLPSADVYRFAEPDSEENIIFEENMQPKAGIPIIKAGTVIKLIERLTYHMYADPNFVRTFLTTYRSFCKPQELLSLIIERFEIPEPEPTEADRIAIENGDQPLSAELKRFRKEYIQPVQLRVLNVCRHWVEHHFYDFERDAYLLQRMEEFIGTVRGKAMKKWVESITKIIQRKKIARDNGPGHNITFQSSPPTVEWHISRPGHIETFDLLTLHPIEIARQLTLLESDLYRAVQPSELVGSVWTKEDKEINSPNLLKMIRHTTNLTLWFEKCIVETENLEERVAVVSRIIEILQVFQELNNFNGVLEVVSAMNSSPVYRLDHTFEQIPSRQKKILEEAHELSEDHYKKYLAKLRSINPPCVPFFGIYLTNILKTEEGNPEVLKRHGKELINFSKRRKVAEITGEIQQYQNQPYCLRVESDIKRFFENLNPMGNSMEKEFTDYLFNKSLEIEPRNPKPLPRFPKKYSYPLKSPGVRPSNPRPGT
# Procedure: Data was reported as equilibrium dissociation constant (Kd) values.
# Using a GE Biacore 8K SPR instrument, avi-tagged SOS1 catalytic domain protein was immobilized to a level of approximately 6000 response units (RU) on a streptavidin-coated SPR sensor chip in assay buffer containing 0.01 M HEPES, 0.15 M NaCl and 0.05% v/v Surfactant P20. […] For each test compound, a separate 0 μM sample was generated for use during subsequent double reference subtraction. Serially for each test compound, individual dilution samples were flowed over the immobilized SOS1 protein at a flow rate of 50 μL/minute to monitor the association with SOS1. Dissociation of bound test compound from the SOS1 protein was immediately monitored by flowing assay buffer over the sensor surface and monitoring the decrease in binding signal back to the baseline level seen in the absence of compound. This was repeated for all compound dilutions in each series. The binding level response for each test compound concentration was noted immediately prior to the end of the association phase, and a secondary plot generated showing binding response level versus test compound concentration generated for each compound dilution series.
# [2] = molecular target: T1, SOS1 catalytic domain (residues 564-1049); assay: Mode of Action Assay: inhibition of SOS1 nucleotide exchange activity (SOS1 TR-FRET IC50 Assay)
# [3] = system: PC-9 cells (EGFR Ex19Del); assay: Potency Assay: pERK (SOS1 pERK IC50 Assay, AlphaLISA SureFire Ultra p-ERK1/2); assay type: cell-based; conditions: Homo sapiens, read-out: SOS1 pERK IC50
# How it was run: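 Cellular pERK1/2 by AlphaLISA SureFire Ultra after 1 h compound exposure (37° C., highest concentration 10 μM, 3-fold steps, duplicates) of EGFR Ex19Del PC-9 cells seeded the day before. A 4-parameter fit of signal versus log concentration gives IC50.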
# [4] = PC-9 cells (EGFR Ex19Del), 1 hour incubation, AlphaLISA p-ERK1/2
Kd [1] [nM],IC50 [2] [nM],"IC50 [3, 4] [nM]",Structure (SMILES),"IC50 ([3]; PC-9, 1 h) [nM]"
< 400,< 1000,,C[C@@H](Nc1nc(Cl)nc2c1CN(S(=O)(=O)N1CCN(C)CC1)C2)c1cc(N)cc(C(F)(F)F)c1 [Example 25],
> 400,,,C[C@@H](Nc1nc(Cl)nc2c1CN(S(=O)(=O)N1CC(C#N)C1)C2)c1cc(N)cc(C(F)(F)F)c1 [Example 26],
< 400,,,C[C@@H](Nc1nc(Cl)nc2c1CN(S(=O)(=O)N1CCNCC1)C2)c1cc(N)cc(C(F)(F)F)c1 [Example 28],
> 400,> 1000,,"Cc1nc2c(c(N[C@H](C)c3cc(N)cc(C(F)(F)F)c3)n1)CN(c1ccc(Br)cn1)CC2 [Example 42, N-[(1R)-1-[3-amino-5-(trifluoromethyl)phenyl]ethyl]-6-(5-bromo-2-pyridyl)-2-methyl-7,8-dihydro-5H-pyrido[4,3-d]pyrimidin-4-amine]",
> 400,> 1000,,Cc1nc2c(c(N[C@H](C)c3cc(N)cc(C(F)(F)F)c3)n1)CN(C)C2 [Example 43],
> 400,> 1000,,"Cc1nc2c(c(N[C@H](C)c3cc(N)cc(C(F)(F)F)c3)n1)CN(c1ccc(Br)cn1)C2 [Example 44, N-[(1R)-1-[3-amino-5-(trifluoromethyl)phenyl]ethyl]-6-(5-bromo-2-pyridyl)-2-methyl-5,7-dihydropyrrolo[3,4-d]pyrimidin-4-amine]",
> 400,> 1000,,CCOCCS(=O)(=O)N1Cc2nc(Cl)nc(N[C@H](C)c3cc(N)cc(C(F)(F)F)c3)c2C1 [Example 50],
< 400,> 1000,,COc1cc(OC)nc(C(=O)N2Cc3nc(Cl)nc(N[C@H](C)c4cc(N)cc(C(F)(F)F)c4)c3C2)n1 [Example 63],
> 400,> 1000,,C[C@@H](Nc1nc(Cl)nc2c1CN(C(=O)c1nccnn1)C2)c1cc(N)cc(C(F)(F)F)c1 [Example 64],
> 400,> 1000,,C[C@@H](Nc1nc(Cl)nc2c1CN(C(=O)c1cnccn1)C2)c1cc(N)cc(C(F)(F)F)c1 [Example 66],
> 400,> 1000,,COc1cccc(C(=O)N2Cc3nc(Cl)nc(N[C@H](C)c4cc(N)cc(C(F)(F)F)c4)c3C2)n1 [Example 67],
> 400,> 1000,,COc1cncc(C(=O)N2Cc3nc(Cl)nc(N[C@H](C)c4cc(N)cc(C(F)(F)F)c4)c3C2)n1 [Example 69],
< 400,< 1000,,COc1cccnc1C(=O)N1Cc2nc(Cl)nc(N[C@H](C)c3cc(N)cc(C(F)(F)F)c3)c2C1 [Example 74],
> 400,> 1000,,C[C@@H](Nc1nc(Cl)nc2c1CN(C(=O)c1ccc(-n3ccnc3)cn1)C2)c1cc(N)cc(C(F)(F)F)c1 [Example 76],
< 400,,,C[C@@H](Nc1nc(Cl)nc2c1CN(C(=O)C1CC3(CCNCC3)C1)C2)c1cc(N)cc(C(F)(F)F)c1 [Example 79],
> 400,> 1000,,C[C@@H](Nc1nc(Cl)nc2c1CN(C(=O)c1ccc3c(n1)OCCO3)C2)c1cc(N)cc(C(F)(F)F)c1 [Example 80],
< 400,< 1000,,C[C@@H](Nc1nc(Cl)nc2c1CN(C(=O)C1CC3CCC(C1)O3)C2)c1cc(N)cc(C(F)(F)F)c1 (some centres unmarked) [Example 81],
> 400,> 1000,,C[C@@H](Nc1nc(Cl)nc2c1CN(C(=O)c1csc(N3CCOCC3)n1)C2)c1cc(N)cc(C(F)(F)F)c1 [Example 85],
< 400,,,C[C@@H](Nc1nc(Cl)nc2c1CN(C(=O)C1(N)CCCOC1)C2)c1cc(N)cc(C(F)(F)F)c1 (some centres unmarked) [Example 88],

Kd [1] [nM],IC50 [2] [nM],"IC50 [3, 4] [nM]",Structure (SMILES),"IC50 ([3]; PC-9, 1 h) [nM]"
< 400,< 1000,,C[C@@H](Nc1nc(Cl)nc2c1CN(C(=O)CN1CCOCC1)C2)c1cc(N)cc(C(F)(F)F)c1 [Example 89],
> 400,> 1000,,C[C@@H](Nc1nc(Cl)nc2c1CN(C(=O)c1cnc3cc[nH]c3c1)C2)c1cc(N)cc(C(F)(F)F)c1 [Example 90],
< 400,,,C[C@@H](Nc1nc(Cl)nc2c1CN(C(=O)C1CC3(CNC3)C1)C2)c1cc(N)cc(C(F)(F)F)c1 [Example 98],
> 400,,,C[C@@H](Nc1nc(Cl)nc2c1CN(C(=O)c1cc3c(s1)CCOC3)C2)c1cc(N)cc(C(F)(F)F)c1 [Example 105],
< 400,,,C[C@@H](Nc1nc(Cl)nc2c1CN(C(=O)C1CC(=O)N(c3ccc4c(c3)OCO4)C1)C2)c1cc(N)cc(C(F)(F)F)c1 (some centres unmarked) [Example 106],
> 400,,,"COC(=O)N1Cc2nc(C)nc(N[C@H](C)c3cc(N)cc(C(F)(F)F)c3)c2C1 [Example 117, methyl 4-{[(1R)-1-[3-amino-5-(trifluoromethyl)phenyl]ethyl]amino}-2-methyl-5H,6H,7H-pyrrolo[3,4-d]pyrimidine-6-carboxylate]",
< 400,,,C[C@@H](Nc1nc(Cl)nc2c1CN(C(=O)N1CCc3ncncc3C1)C2)c1cc(N)cc(C(F)(F)F)c1 [Example 144],
< 400,,,C[C@@H](Nc1nc(Cl)nc2c1CN(C(=O)N1C[C@H]3COC[C@H]3C1)C2)c1cc(N)cc(C(F)(F)F)c1 [Example 149],
< 400,,,C[C@@H](Nc1nc(Cl)nc2c1CN(C(=O)N1CC3CCC(C1)O3)C2)c1cc(N)cc(C(F)(F)F)c1 [Example 153],
< 400,,,C[C@@H](Nc1nc(Cl)nc2c1CN(C(=O)N1CCC(O)CC1)C2)c1cc(N)cc(C(F)(F)F)c1 [Example 155],
< 400,,,C[C@@H](Nc1nc(Cl)nc2c1CN(C(=O)N1CC3(CCCO3)C1)C2)c1cc(N)cc(C(F)(F)F)c1 [Example 156],
< 400,,,C[C@@H](Nc1nc(Cl)nc2c1CN(C(=O)N1CCC(C)(N)CC1)C2)c1cc(N)cc(C(F)(F)F)c1 [Example 157],
< 400,,,C[C@@H](Nc1nc(Cl)nc2c1CN(C(=O)N1C3CCC1COC3)C2)c1cc(N)cc(C(F)(F)F)c1 [Example 158],
< 400,,,C[C@@H](Nc1nc(Cl)nc2c1CN(C(=O)N1CC[C@H](O)C1)C2)c1cc(N)cc(C(F)(F)F)c1 [Example 161],
< 400,,,C[C@@H]1COC[C@H](C)N1C(=O)N1Cc2nc(Cl)nc(N[C@H](C)c3cc(N)cc(C(F)(F)F)c3)c2C1 [Example 164],
< 400,,,"C[C@@H](Nc1nccc2nc(C(=O)N3CCNCC3)cn12)c1cccc(C(F)F)c1F [Example 530, [5-[[(1R)-1-[3-(difluoromethyl)-2-fluoro-phenyl]ethyl]amino]imidazo[1,2-c]pyrimidin-2-yl]-piperazin-1-yl-methanone hydrochloride]",
,> 1000,< 1000,"CC(Nc1nc(Cl)nc2c1CN(C(=O)N1CCOCC1)C2)c1cc(N)c(F)c(C(F)(F)F)c1 (centres unmarked) [Example 533, [4-[1-[3-amino-4-fluoro-5-(trifluoromethyl)phenyl]ethylamino]-2-chloro-5,7-dihydropyrrolo[3,4-d]pyrimidin-6-yl]-morpholino-methanone]",
,< 1000,< 1000,"COCC(F)(F)c1cccc([C@@H](C)Nc2nc(Cl)nc3c2CN(C(=O)C2(OC)CCOCC2)C3)c1 [Example 536, [2-chloro-4-[[(1R)-1-[3-(1,1-difluoro-2-methoxy-ethyl)phenyl]ethyl]amino]-5,7-dihydropyrrolo[3,4-d]pyrimidin-6-yl]-(4-methoxytetrahydropyran-4-yl)methanone]",

Structure (SMILES),Kd [1] [nM],IC50 [2] [nM],"IC50 [3, 4] [nM]","IC50 ([3]; PC-9, 1 h) [nM]"
"CC(Nc1nc(Cl)nc2c1CN(C(=O)N1CCOCC1)C2)c1ccc(-c2ccccc2)s1 (centres unmarked) [Example 532, [2-chloro-4-[1-(5-phenyl-2-thienyl)ethylamino]-5,7-dihydropyrrolo[3,4-d]pyrimidin-6-yl]-morpholino-methanone]",,> 1000,,> 1000
"CC(Nc1nc(Cl)nc2c1CN(C(=O)N1CCOCC1)C2)c1cccc(C2CC2)c1 (centres unmarked) [Example 534, [2-chloro-4-[1-(3-cyclopropylphenyl)ethylamino]-5,7-dihydropyrrolo[3,4-d]pyrimidin-6-yl]-morpholino-methanone]",,> 1000,,> 1000
"CC(Nc1nc(Cl)nc2c1CN(C(=O)N1CCOCC1)C2)c1cccc(S(N)(=O)=O)c1 (centres unmarked) [Example 535, 3-[1-[[2-chloro-6-(morpholine-4-carbonyl)-5,7-dihydropyrrolo[3,4-d]pyrimidin-4-yl]amino]ethyl]benzenesulfonamide]",,> 1000,,> 1000
